These are literature values, as cited in patent US20230241194A1, “PRE-ERYTHROCYTIC MALARIA VACCINES” (PATH, priority 2020, published 2023).

Structures are written as SMILES.

The series has as its target T1, TLR7 (Homo sapiens, UniProt Q9NYK1).
T1 sequence (Q9NYK1 27-1049): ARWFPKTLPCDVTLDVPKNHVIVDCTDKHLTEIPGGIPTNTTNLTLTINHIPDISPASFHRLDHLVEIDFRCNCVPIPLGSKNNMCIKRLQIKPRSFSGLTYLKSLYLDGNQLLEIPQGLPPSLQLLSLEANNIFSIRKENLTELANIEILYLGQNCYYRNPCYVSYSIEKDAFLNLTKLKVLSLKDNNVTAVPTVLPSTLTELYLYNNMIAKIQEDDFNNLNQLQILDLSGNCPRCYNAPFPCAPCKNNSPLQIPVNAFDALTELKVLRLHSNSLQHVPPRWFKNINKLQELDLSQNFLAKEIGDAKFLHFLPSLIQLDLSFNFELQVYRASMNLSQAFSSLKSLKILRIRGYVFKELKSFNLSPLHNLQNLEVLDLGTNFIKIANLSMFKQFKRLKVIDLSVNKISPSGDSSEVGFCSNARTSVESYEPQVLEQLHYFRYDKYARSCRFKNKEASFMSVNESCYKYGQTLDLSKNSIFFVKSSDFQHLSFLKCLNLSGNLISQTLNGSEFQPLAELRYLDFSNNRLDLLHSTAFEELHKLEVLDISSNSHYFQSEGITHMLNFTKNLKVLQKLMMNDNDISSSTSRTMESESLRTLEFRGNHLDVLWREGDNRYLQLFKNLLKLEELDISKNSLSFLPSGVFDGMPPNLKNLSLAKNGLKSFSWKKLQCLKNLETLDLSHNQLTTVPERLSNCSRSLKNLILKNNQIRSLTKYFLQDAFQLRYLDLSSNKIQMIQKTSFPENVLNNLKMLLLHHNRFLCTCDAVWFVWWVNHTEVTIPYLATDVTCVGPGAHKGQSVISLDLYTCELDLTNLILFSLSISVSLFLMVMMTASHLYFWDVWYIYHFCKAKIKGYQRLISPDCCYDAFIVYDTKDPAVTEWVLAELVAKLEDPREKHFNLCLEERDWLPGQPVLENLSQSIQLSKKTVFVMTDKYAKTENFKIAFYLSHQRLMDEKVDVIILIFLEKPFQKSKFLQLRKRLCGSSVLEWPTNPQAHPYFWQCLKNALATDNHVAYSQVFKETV
The settings on record: reported in PTL 1.

`CCC[C@@H](CCO)Nc1nc(N)nc(C)c1Cc1ccc(CN(C)CCNC(=O)CC/C(C)=C/CC/C(C)=C/CC/C(C)=C/CC/C=C(\C)CC/C=C(\C)CCC=C(C)C)cc1` [Compound A, (4E,8E,12E,16E,20E)-N-{2-[{4-[(2-amino-4-{[(3S)-1-hydroxyhexan-3-yl]amino}-6-methylpyrimidin-5-yl)methyl]benzyl}(methyl)amino]ethyl}-4,8,12,17,21,25-hexamethylhexacosa-4,8,12,16,20,24-hexaenamide]: the TLR7 agonistic activity result is “having TLR7 agonistic activity”.
